Results as given in paper PMC6669564, “Cytotoxic Sesquiterpenoid Quinones and Quinols, and an 11-Membered Heterocycle, Kauamide, from the Hawaiian Marine Sponge Dactylospongia elegans” (Marine Drugs, 2019).

Target: β-secretase 1 (BACE1) (Homo sapiens, UniProt P56817)
Test: HitHunter BACE1 enzyme fragment complementation chemiluminescence assay, […] h incubation, dose response
Assay type: biochemical

Sequence of β-secretase 1 (BACE1) (P56817 46-457): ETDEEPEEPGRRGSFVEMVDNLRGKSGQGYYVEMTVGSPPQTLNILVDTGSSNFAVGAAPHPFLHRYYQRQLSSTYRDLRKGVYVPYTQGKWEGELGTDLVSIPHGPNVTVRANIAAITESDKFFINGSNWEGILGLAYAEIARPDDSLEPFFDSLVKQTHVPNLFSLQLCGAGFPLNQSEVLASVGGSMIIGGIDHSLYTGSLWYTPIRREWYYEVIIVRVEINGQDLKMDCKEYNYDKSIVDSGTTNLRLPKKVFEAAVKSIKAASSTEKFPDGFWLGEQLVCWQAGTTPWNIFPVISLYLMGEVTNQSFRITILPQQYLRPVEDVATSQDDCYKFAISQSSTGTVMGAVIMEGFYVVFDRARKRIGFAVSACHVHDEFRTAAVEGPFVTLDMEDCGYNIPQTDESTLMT

IC50 [µM]	SMILES
65	C=C1CCC[C@H]2[C@](C)(CC3=C(O)C(=O)C=C(OC)C3=O)[C@@H](C)CC[C@]12C [compound 1, ilimaquinone]
78	C=C1CCC[C@H]2[C@](C)(CC3=C(O)C(=O)C=C(N)C3=O)[C@@H](C)CC[C@]12C [compound 3, smenospongine]
